Test system: trypsin
Assay: Evaluation of leupeptin-binding ability on trypsin-immobilized chip by surface plasmon resonance
Settings: 10 min after initiation of replacement
Method: The solution in the above-describe dextran measurement chip was removed therefrom. Thereafter, 70 μl of a mixed solution consisting of 200 mM EDC (N-ethyl-N′-(3-dimethylaminopropyl)carbodiimide hydrochloride) and 50 mM NHS (N-hydroxysuccinimide) was added to the measurement chip, and it was then left for 10 minutes. The mixed solution was removed from the measurement chip, and the chip was then washed with 100 μl of water 3 times, and then with 100 μl of buffer 1 (100 mM HEPES (N-2-hydroxyethylpiperazin-N′-2-ethanesulfonic acid), 150 mM NaCl, 10 mM CaCl2) 3 times. The chip containing 100 μl of buffer 1 was installed in the surface plasmon resonance measurement device of the present invention. The inside of the chip was replaced with a trypsin solution (produced by dissolving trypsin in buffer 1 to a concentration of 1 mg/ml), and it was then left for 30 minutes, so as to immobilize trypsin. Thereafter, the inside of the chip was replaced with a 1 M ethanolamine solution, and it was then left for 10 minutes. Thereafter, the inside of the chip was washed with 100 μl of buffer 1 ten times. The amount of a change in resonance signals due to immobilization of trypsin was 2,000 RU.
With regard to the trypsin-immobilized chip of the present invention, the dielectric block was capped with silicon rubber, so as to produce a cell with an internal volume of 15 μl. In the case of such a block cell, the volume of the cell is determined with a space surrounded by the measurement chip and the cap. Two holes each having a diameter of 1 mm were formed through the silicon rubber used as a cap, and a Teflon tube having an inside diameter of 0.5 mm and an outside diameter of 1 mm was passed through each of these holes, so as to produce a flow channel. Likewise, a cap and a flow channel were produced for a reference chip. Thereafter, the two chips were connected in series, so as to produce a flow channel system. Each of the two chips in this flow channel system was installed in the surface plasmon resonance measurement device of the present invention.
The inside of the flow channel system was filled with buffer 2 (10 mM HEPES, 150 mM NaCl). Defining the state before the exchange of the liquid as a standard, a change in signals was measured at intervals of 0.5 seconds. The inside of the flow channel system was replaced with a leupeptin solution produced by dissolving leupeptin in buffer 2 to a concentration of 1 μg/ml) by each method described in Table 1. The level of noise generated on the reference chip side at 2 to 10 minutes after initiation of the replacement, and changes in signals on the trypsin-immobilized chip side and on the reference chip side at 10 minutes after initiation of the replacement, are shown in Table 1. In order to obtain binding detection data with high reliability, it is preferable that the width of noise level (the difference between the maximum and the minimum in a change in signals) be within 10 RU, and that the base line fluctuation, that is, the change in signals on the reference chip side be within 10 RU. More preferably, the above values are both within 5 RU.
The inside of the flow channel system was filled with buffer 2 (10 mM HBPES, 150 mM NaCl). Defining the state before the exchange of the liquid as a standard, a change in signals was measured at intervals of 0.5 seconds. The inside of the flow channel system was replaced with a leupeptin solution (produced by dissolving leupeptin in buffer 2 to a concentration of 1 μg ml) by each method described in Table 2. The level of noise generated on the reference chip side at 2 to 10 minutes after initiation of the replacement, and changes in signals on the trypsin-immobilized chip side and on the reference chip side at 10 minutes after initiation of the replacement, are shown in Table 2. […]

CC(=O)N[C@@H](CC(C)C)C(=O)N[C@@H](CC(C)C)C(=O)N[C@H](C=O)CCCNC(=N)N [leupeptin]
Signal change Immobilized chip (Table 1 method No. 1: leupeptin 1 μg/ml, flow 4 ml/min, exchange 0.125 min, termination 9.875 min, Ve/Vs 16.7): 19 RU
Signal change Immobilized chip (Table 1 method No. 2: leupeptin 1 μg/ml, flow 4 ml/min, exchange 0.25 min, termination 9.75 min, Ve/Vs 33.3): 21 RU
Signal change Immobilized chip (Table 1 method No. 3: leupeptin 1 μg/ml, flow 4 ml/min, exchange 1 min, termination 9 min, Ve/Vs 133.3): 20 RU
Signal change Immobilized chip (Table 1 method No. 4: leupeptin 1 μg/ml, flow 4 ml/min, exchange 1.5 min, termination 8.5 min, Ve/Vs 200.0): 21 RU
Signal change Immobilized chip (Table 1 method No. 5 (comparative): leupeptin 1 μg/ml, flow 4 ml/min, exchange 10 min, termination 0 min, Ve/Vs 1333.3): 12 RU
Signal change Immobilized chip (Table 1 method No. 6 (comparative): leupeptin 1 μg/ml, flow 2 ml/min, exchange 10 min, termination 0 min, Ve/Vs 666.7): 25 RU
Signal change Immobilized chip (Table 1 method No. 7 (comparative): leupeptin 1 μg/ml, flow 1 ml/min, exchange 10 min, termination 0 min, Ve/Vs 333.3): 18 RU
Signal change Immobilized chip (Table 1 method No. 8 (comparative): leupeptin 1 μg/ml, flow 0.5 ml/min, exchange 10 min, termination 0 min, Ve/Vs 166.7): 26 RU
Signal change Immobilized chip (Table 2 method No. 1: leupeptin 1 μg ml, flow 4 ml/min, exchange 0.125 min, termination 9.875 min, Ve/Vs 16.7): 19 RU
Signal change Immobilized chip (Table 2 method No. 2: leupeptin 1 μg ml, flow 4 ml/min, exchange 0.25 min, termination 9.75 min, Ve/Vs 33.3): 21 RU
Signal change Immobilized chip (Table 2 method No. 3 (comparative): leupeptin 1 μg ml, flow 4 ml/min, exchange 10 min, termination 0 min, Ve/Vs 1333.3): 12 RU
Signal change Immobilized chip (Table 2 method No. 4 (comparative): leupeptin 1 μg ml, flow 2 ml/min, exchange 10 min, termination 0 min, Ve/Vs 666.7): 25 RU
Signal change Immobilized chip (Table 2 method No. 5 (comparative): leupeptin 1 μg ml, flow 1 ml/min, exchange 10 min, termination 0 min, Ve/Vs 333.3): 18 RU
Signal change Immobilized chip (Table 2 method No. 6 (comparative): leupeptin 1 μg ml, flow 0.5 ml/min, exchange 10 min, termination 0 min, Ve/Vs 166.7): 26 RU
Signal change Immobilized chip (Table 2 method No. 7: leupeptin 1 μg ml, flow 0.2 ml/min, exchange 10 min, termination 0 min, Ve/Vs 66.7): 22 RU
Signal change Immobilized chip (Table 2 method No. 8: leupeptin 1 μg ml, flow 0.1 ml/min, exchange 10 min, termination 0 min, Ve/Vs 33.3): 20 RU
